Test results as given in PubChem BioAssay AID1963851 (Molecular Pharmacology Branch, DTP, NCI, 2024).

System: 188146-221-R-J1-PDC complex spheroid viability
Test: Anticancer human tumor 188146-221-R-J1-PDC patient-derived colon adenocarcinoma cell line growth inhibition [POLQ]
Settings: for IC50: curve of first compound; for viability, T/C: stronger effect = lower value
Outline: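 Patient-derived tumour cells were co-cultured with HUVEC and mesenchymal stem cells as multicellular spheroids at 37 °C. They were treated with POLQ inhibitors (novobiocin, ART-558, RP6685) alone or combined with other agents. Top concentrations were at or near clinical Cmax (otherwise 10 microM; SN-38 at 1 microM), decreasing in half-log steps.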

[1] = second compound 0.0316 µM, first compound 0.0316 µM
[2] = second compound 0.0316 µM, first compound 0.1 µM
[3] = second compound 0.1 µM, first compound 0.0316 µM
[4] = second compound 0.1 µM, first compound 0.1 µM
[5] = second compound 0.316 µM, first compound 0.0316 µM
[6] = second compound 0.316 µM, first compound 0.1 µM
[7] = second compound 1 µM, first compound 0.0316 µM
[8] = second compound 1 µM, first compound 0.1 µM
[9] = second compound 3.16 µM, first compound 0.0316 µM
[10] = second compound 3.16 µM, first compound 0.1 µM
[11] = second compound 10 µM, first compound 0.0316 µM
[12] = second compound 10 µM, first compound 0.1 µM
[13] = second compound 0.0316 µM, first compound 0.316 µM
[14] = second compound 0.0316 µM, first compound 1 µM
[15] = second compound 0.0316 µM, first compound 3.16 µM
[16] = second compound 0.0316 µM, first compound 10 µM
[17] = second compound 0.1 µM, first compound 0.316 µM
[18] = second compound 0.1 µM, first compound 1 µM
[19] = second compound 0.1 µM, first compound 3.16 µM
[20] = second compound 0.1 µM, first compound 10 µM
[21] = second compound 0.316 µM, first compound 0.316 µM
[22] = second compound 0.316 µM, first compound 1 µM
[23] = second compound 0.316 µM, first compound 3.16 µM
[24] = second compound 0.316 µM, first compound 10 µM
[25] = second compound 1 µM, first compound 0.316 µM
[26] = second compound 1 µM, first compound 1 µM
[27] = second compound 1 µM, first compound 3.16 µM
[28] = second compound 1 µM, first compound 10 µM
[29] = second compound 3.16 µM, first compound 0.316 µM
[30] = second compound 3.16 µM, first compound 1 µM
[31] = second compound 3.16 µM, first compound 3.16 µM
[32] = second compound 3.16 µM, first compound 10 µM
[33] = second compound 10 µM, first compound 0.316 µM
[34] = second compound 10 µM, first compound 1 µM
[35] = second compound 10 µM, first compound 3.16 µM
[36] = second compound 10 µM, first compound 10 µM
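Further: spheroids exposed to compounds for seven days.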
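Wherever viability, T/C is given: 100% = DMSO vehicle control viability.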

`CC[C@@]1(O)C(=O)OCc2c1cc1n(c2=O)Cc2cc3c(CN(C)C)c(O)ccc3nc2-1` + Nc1ccc(C#CCN(C(=O)Cc2ncc(C(F)(F)F)cc2C(F)(F)F)c2ccc(F)cc2)nn1 was tested, and the IC50 (second compound 0.0316 µM) was > 100 nM, the IC50 (second compound 0.1 µM) was > 100 nM and the IC50 (second compound 0.316 µM) was > 100 nM. For the same compound, the IC50 (second compound 1 µM) was > 100 nM, the IC50 (second compound 3.16 µM) was > 100 nM and the IC50 (second compound 10 µM) was > 100 nM. It also gave a viability, T/C (second compound 0.0316 µM, first compound 0.000316 µM) of 89.7%, a viability, T/C (second compound 0.0316 µM, first compound 0.001 µM) of 95.7% and a viability, T/C (second compound 0.0316 µM, first compound 0.00316 µM) of 84.3%. It also gave a viability, T/C (second compound 0.0316 µM, first compound 0.01 µM) of 101%, a viability, T/C [1] of 96.4% and a viability, T/C [2] of 73.5%. It also gave a viability, T/C (second compound 0.1 µM, first compound 0.000316 µM) of 118%, a viability, T/C (second compound 0.1 µM, first compound 0.001 µM) of 84.1% and a viability, T/C (second compound 0.1 µM, first compound 0.00316 µM) of 95.1%. The viability, T/C (second compound 0.1 µM, first compound 0.01 µM) was 100%, the viability, T/C [3] was 84.9% and the viability, T/C [4] was 74.9%. The viability, T/C (second compound 0.316 µM, first compound 0.000316 µM) was 104%, the viability, T/C (second compound 0.316 µM, first compound 0.001 µM) was 88.4% and the viability, T/C (second compound 0.316 µM, first compound 0.00316 µM) was 101%. It also gave a viability, T/C (second compound 0.316 µM, first compound 0.01 µM) of 97.5%, a viability, T/C [5] of 103% and a viability, T/C [6] of 69.5%. It also gave a viability, T/C (second compound 1 µM, first compound 0.000316 µM) of 103%, a viability, T/C (second compound 1 µM, first compound 0.001 µM) of 102% and a viability, T/C (second compound 1 µM, first compound 0.00316 µM) of 90.5%. The viability, T/C (second compound 1 µM, first compound 0.01 µM) was 86.4%, the viability, T/C [7] was 82.3% and the viability, T/C [8] was 68.2%. It also gave a viability, T/C (second compound 3.16 µM, first compound 0.000316 µM) of 106%, a viability, T/C (second compound 3.16 µM, first compound 0.001 µM) of 92.9% and a viability, T/C (second compound 3.16 µM, first compound 0.00316 µM) of 95.1%. It also gave a viability, T/C (second compound 3.16 µM, first compound 0.01 µM) of 89.3%, a viability, T/C [9] of 83% and a viability, T/C [10] of 80.1%. For the same compound, the viability, T/C (second compound 10 µM, first compound 0.000316 µM) was 100%, the viability, T/C (second compound 10 µM, first compound 0.001 µM) was 96.8% and the viability, T/C (second compound 10 µM, first compound 0.00316 µM) was 98.9%. It also gave a viability, T/C (second compound 10 µM, first compound 0.01 µM) of 98.3%, a viability, T/C [11] of 90.5% and a viability, T/C [12] of 66.2%.
`COc1cc(C2c3cc4c(cc3C(OC3OC5COC(C)OC5C(O)C3O)C3COC(=O)C23)OCO4)cc(OC)c1O` (stereo unspecified) + Nc1ccc(C#CCN(C(=O)Cc2ncc(C(F)(F)F)cc2C(F)(F)F)c2ccc(F)cc2)nn1 gave an IC50 (second compound 0.0316 µM) of 597 nM, an IC50 (second compound 0.1 µM) of 789 nM and an IC50 (second compound 0.316 µM) of 582 nM. The IC50 (second compound 1 µM) was 626 nM, the IC50 (second compound 3.16 µM) was 625 nM and the IC50 (second compound 10 µM) was 633 nM. For the same compound, the viability, T/C [1] was 87.2%, the viability, T/C [2] was 95.2% and the viability, T/C [13] was 61.4%. The viability, T/C [14] was 40.7%, the viability, T/C [15] was 24.9% and the viability, T/C [16] was 22.9%. The viability, T/C [3] was 89.5%, the viability, T/C [4] was 87.3% and the viability, T/C [17] was 65.9%. For the same compound, the viability, T/C [18] was 48.2%, the viability, T/C [19] was 27.7% and the viability, T/C [20] was 28.5%. The viability, T/C [5] was 97.1%, the viability, T/C [6] was 97.8% and the viability, T/C [21] was 66.3%. For the same compound, the viability, T/C [22] was 35.5%, the viability, T/C [23] was 25% and the viability, T/C [24] was 21.4%. It also gave a viability, T/C [7] of 97.5%, a viability, T/C [8] of 79.3% and a viability, T/C [25] of 67.6%. It also gave a viability, T/C [26] of 39.4%, a viability, T/C [27] of 24.6% and a viability, T/C [28] of 22.2%. For the same compound, the viability, T/C [9] was 100%, the viability, T/C [10] was 88.5% and the viability, T/C [29] was 64.2%. It also gave a viability, T/C [30] of 40.7%, a viability, T/C [31] of 27.1% and a viability, T/C [32] of 25%. The viability, T/C [11] was 86.8%, the viability, T/C [12] was 78.4% and the viability, T/C [33] was 58.8%. The viability, T/C [34] was 47.4%, the viability, T/C [35] was 25% and the viability, T/C [36] was 29%.
`O=C(c1cc(Cc2n[nH]c(=O)c3ccccc23)ccc1F)N1CCN(C(=O)C2CC2)CC1` + COC1C(OC(N)=O)C(O)C(Oc2ccc3c(O)c(NC(=O)c4ccc(O)c(CC=C(C)C)c4)c(=O)oc3c2C)OC1(C)C was tested, and the IC50 (second compound 0.0316 µM) was > 10000 nM, the IC50 (second compound 0.1 µM) was > 10000 nM and the IC50 (second compound 0.316 µM) was > 10000 nM. For the same compound, the IC50 (second compound 1 µM) was > 10000 nM, the IC50 (second compound 3.16 µM) was > 10000 nM and the IC50 (second compound 10 µM) was > 10000 nM. The viability, T/C [1] was 93.5%, the viability, T/C [2] was 88.6% and the viability, T/C [13] was 100%. It also gave a viability, T/C [14] of 98.4%, a viability, T/C [15] of 99.5% and a viability, T/C [16] of 74.3%. For the same compound, the viability, T/C [3] was 107%, the viability, T/C [4] was 102% and the viability, T/C [17] was 97.1%. It also gave a viability, T/C [18] of 106%, a viability, T/C [19] of 91.3% and a viability, T/C [20] of 85.2%. The viability, T/C [5] was 108%, the viability, T/C [6] was 94.1% and the viability, T/C [21] was 97.7%. It also gave a viability, T/C [22] of 105%, a viability, T/C [23] of 90.7% and a viability, T/C [24] of 72.7%. It also gave a viability, T/C [7] of 106%, a viability, T/C [8] of 104% and a viability, T/C [25] of 104%. The viability, T/C [26] was 96.3%, the viability, T/C [27] was 89.5% and the viability, T/C [28] was 74.7%. For the same compound, the viability, T/C [9] was 108%, the viability, T/C [10] was 107% and the viability, T/C [29] was 101%. For the same compound, the viability, T/C [30] was 91.7%, the viability, T/C [31] was 105% and the viability, T/C [32] was 96.6%. The viability, T/C [11] was 101%, the viability, T/C [12] was 103% and the viability, T/C [33] was 98.8%. For the same compound, the viability, T/C [34] was 97.1%, the viability, T/C [35] was 108% and the viability, T/C [36] was 80.5%.
